# Source: a melting point compilation (Tetko et al.; mined from patent text by program, amines drawn as free bases though some values may be those of a salt)
row,Structure (SMILES),melting point [°C]
1,COP(=O)(Cc1cccc(CP(=O)(OC)OC)c1F)OC,116 to 118
2,O=C(O)CCCCCCCNS(=O)(=O)c1cccc(Cl)c1,85 to 86
3,O=C(NCCc1cccs1)C12CC3CC(CC1C3)C2,113 to 114
4,CCOC(=O)Cc1ccc(-c2ccc(F)cc2F)c(F)c1,50 to 52
5,COC(=O)CNC(=O)Nc1cc(F)ccc1[N+](=O)[O-],133 to 135
6,COc1cc(C)nc2nc(S(=O)(=O)Nc3c(Cl)cccc3Cl)nn12,214 to 215
7,CNC(=O)Nc1ccc2c(c1)C(=O)NC(=O)C2(C)C,257 to 258
8,COc1ccc(N2CCN(CCC3OCCc4cc(C#N)ccc43)CC2)cc1 (stereo not drawn),86 to 88
9,O=C(Oc1ccc2cc(CN3CCCC3)ccc2c1)N1CCC(c2ccc(Cl)cc2)CC1,121 to 123
10,O=[N+]([O-])N=C1NCCCN1Cc1ccc(Cl)nc1,113 to 117
11,Clc1ccc(OC2CCC3(CCNCC3)CC2)cc1,140 to 142
12,COc1cc(C(OC(C)=O)C(COC(C)=O)[N+](=O)[O-])cc(OC)c1OC (stereo not drawn),107 to 109
13,Nc1cnc(Br)c(Cl)n1,120 to 122
14,COCCOCCOc1ccc2cc(C(=O)O)[nH]c2c1,99 to 102
15,CCn1ncc2c3noc(-c4cccc(C)c4)c3cnc21,178 to 179
16,CCCCN1CCN(NC(=O)c2cc(Cl)c(N)cc2OC)CC1,174
17,CCCCCCCCCCNC(=O)c1ccc(C(=O)NCCCCCCCCCC)c(N(CC(=O)O)CC(=O)O)c1,135 to 136
18,CCCCc1nc2c(N)nc3cccnc3c2n1CCNC(=O)Cc1cccc(O)c1,208 to 210
19,CN(C)c1onc2c1c(=O)n(C)c(=O)n2C,188 to 190
20,Cn1cnc(COc2nn3c(-c4ccc(F)cc4F)nnc3cc2C2(C)CCCCC2)n1,156
21,COc1c(Cl)ccc(-c2cc(N)c(Cl)c(C(=O)OCc3ccc(Cl)cc3Cl)n2)c1F,165 to 168
22,CNc1c(OC)cc(C(=O)CS(C)(=O)=O)cc1OC,98 to 99
23,Cc1cc(C)nc(NCSC(=S)N2CCOCC2)n1,119 to 121
24,CC(C)(C)OC(=O)NCCCSc1ccncc1,72 to 74
25,CC(Br)c1ccc(-n2nccn2)cn1 (stereo not drawn),72 to 73

row,Structure (SMILES),melting point [°C]
1,CCCCCCCCCCCCCCN(C(=O)CCCCCCCCCCC)C1(N)OC(CO)C(O)C(O)C1C(=O)CNC(=O)C(C)(N)C(=O)C(C)N (stereo not drawn),132 to 134
2,COC(=O)C(=O)NCCCCCC1CCSS1 (stereo not drawn),42 to 43
3,O=C(O)c1cn(-c2cc([N+](=O)[O-])c(F)cc2F)c2c(F)c(F)c(F)cc2c1=O,245 to 255
4,Nc1nc(N)nc(C23CC4CC(CC(C4)C2)C3)n1,261 to 262
5,N#Cc1ccc(NC(=S)Nc2ccc(NNC=O)cc2)cc1,180 to 182
6,COc1ccc2ccc(S(=O)(=O)Cl)cc2c1,81 to 85
7,CC(C)Oc1cc(CCCOc2ncccc2CC(=O)O)n(Cc2ccc(Cl)cc2OC(C)C)n1,82 to 84
8,Cn1cnc2cc(NC(=O)c3cc4cc(F)ccc4n3Cc3cccc(F)c3)cnc21,235 to 236
9,NCCNC(=S)Nc1c(Cl)cccc1Cl,136 to 138
10,C=CC(=O)OCCCCC[C@H]1CC[C@H](c2cccc(F)c2F)CC1,29.6 to 30.7
11,COc1ccc2c(Cc3c(Cl)cncc3Cl)nnc(Cl)c2c1,156 to 166
12,COC(=O)CSc1cc(NC(=O)OC(C)(C)C)c([N+](=O)[O-])cc1I,110 to 112
13,CN1CCC2(CC1)NC(=O)N(c1ccc(C#N)c(C(F)(F)F)c1)C2=O,188 to 189
14,NNC(=O)CCc1csc(NC(N)=NCC(F)(F)F)n1,125 to 126
15,COc1ccc(Br)cc1N(C=NCl)C1CC1,185
16,CCC(N)CCCCCCCCC(C)(C)C(=O)O (stereo not drawn),164 to 165
17,C=Cc1[nH]c2cccc3c2c1CC1C3CC(NC(=O)N(CC)CC)CN1C (stereo not drawn),145 to 150
18,CCCCCCC(C)Oc1cc(O)c2c(C)c(CCC(=O)OCC)c(=O)oc2c1 (stereo not drawn),116 to 117
19,CCn1ncc2c1ncc1c(OCCN(C)C)nc3ncnn3c12,149 to 150
20,OC1(c2ccc(-c3cccnc3)cc2)CN2CCC1CC2 (stereo not drawn),172 to 173
21,CCc1c(CNS(=O)(=O)c2cccc(Cl)c2)nn(-c2ccc(Cl)cc2Cl)c1-c1ccc(Br)cc1,169
22,CC1=C(CNC(=O)NC(C)C)c2cc(F)ccc2/C1=C\c1ccc(S(C)(=O)=O)cc1,217
23,COc1cc(O)c2c(c1OC)C(=O)C(O)=C(C)C2=O,218 to 220
24,CCCCC[C@H]1CC[C@H](c2cnc(C#N)nc2)CC1,83.5
25,CCc1nn2c(-c3ccc(Cl)cc3Cl)cccc2c1[N+](=O)[O-],147 to 149

# Other lines, results leading:
row,melting point [°C],Structure (SMILES)
1,180 to 181,O=c1c2ccccc2[nH]c2c(OCCCCBr)cccc12
2,157 to 158,Cc1cccc(-c2csc(N3CCN(C(=O)Nc4cccnc4)CC3)n2)c1
3,266 to 271,Oc1cc2c3cc(O)c(O)cc3n(Cc3ccccc3)c2cc1O
4,294 to 296,NC(=O)c1cc(-c2ccccc2)c(=O)n2c1-c1ccccc1C2
5,219 to 228,Cc1noc(NS(=O)(=O)c2ccc(-c3ccc(C(=O)O)cc3)s2)c1Br
6,146,CC(C)(C)C(O)(c1ccccc1)c1cc(Cl)ccc1O (stereo not drawn)
7,169 to 170,CCCSc1ncc(CCC(=O)O)n1Cc1ccccc1Cl
8,108 to 109,CC(C)(C)[Si](O[C@@H]1CC(=O)C[C@H](O[Si](c2ccccc2)(c2ccccc2)C(C)(C)C)C1)(c1ccccc1)c1ccccc1
9,131 to 133,CC(C)(C)OC(=O)Nc1ccc(-c2ccccc2F)cc1[N+](=O)[O-]
10,153,CC(C)(C)[Si](OCCOc1ccc(/C=C/C(=O)O)c(Oc2ncc(C(F)(F)F)cc2Cl)c1)(c1ccccc1)c1ccccc1
11,157,CCOC(=O)CCCc1csc(NC(=O)NCc2ccccc2)n1
12,75 to 77,CC(C)Oc1ccc(CCCCOc2cc(CCC(=O)O)n(-c3ccccc3)n2)c(Oc2ncc(C(F)(F)F)cc2Cl)c1
13,201 to 205,Cc1cnccc1N1CCN(CC(=O)c2ccc(NS(C)(=O)=O)cc2)CC1
14,176 to 178,CC(=NN(C1=NNC(=O)CC1)c1ccccc1)c1ccccc1
15,248 to 249,Cc1cccc(C)c1Sc1c(O)cc(-c2ccccc2)oc1=O
16,116 to 118,OCC1COC2(CC(c3ccccc3)SC(c3ccccc3)C2)O1 (stereo not drawn)
17,208 to 210,CCN(CC)CCN1C(=O)Nc2ccccc2C1c1cccc(O)c1 (stereo not drawn)
18,120 to 122,COC(=O)[C@@H](Cc1c[nH]c2ccccc12)NS(=O)(=O)c1ccc(OC)cc1
19,254 to 256,COc1ccccc1C1(Cl)C(=O)Nc2cc(C)c(Cl)cc21 (stereo not drawn)
20,116 to 120,CCOC(=O)c1c(O)c2ccccc2n(Cc2ccc(F)cc2)c1=O
21,175,CCOC(=O)c1cnc2cc(OCc3ccccc3)c(OCc3ccccc3)cn2c1=O
22,249 to 250,COc1ccc(C2=NN(c3ccc(C(=O)Nc4ccc(C5=NNC(=O)CC5C)cc4)cc3)C(=O)C3CC=CCC23)cc1OC (stereo not drawn)
23,81 to 82,COc1ccc(C(=O)n2cccc2Br)c(OC)c1
24,71 to 72,CCOC(=O)Cc1nc(-c2ccccc2)c(-c2ccccc2)o1
25,216 to 217,Cc1ccc(C(=S)C=CC(=O)Nc2c(C)cccc2C)cc1
26,256 to 258,Cc1[nH]c(C(=O)NCCC(=O)O)c(C)c1-c1nc2ccc(C(=O)c3ccccc3)cc2[nH]1
27,268 to 269,Cc1ccnc2nc(NS(=O)(=O)c3ccccc3Cl)nn12

row,melting point [°C],Structure (SMILES)
1,142 to 146,c1ccc(Cc2cc3ccncc3[nH]2)cc1
2,256 to 258,O=c1cc(-c2ccc(O)c(F)c2)oc2ccc(CO)cc12
3,250 to 251,CSc1ccc(-c2[nH]c3cccc4c3c2CCNC4=O)cc1
4,178 to 180,NC(=O)c1ccc(NCc2cccc([N+](=O)[O-])c2)cc1
5,176 to 177,c1cncc(-c2cc3ccccc3[nH]2)c1
6,157,CC1CNC(CN(CC(=O)O)C(=O)c2ccccc2)c2ccccc21 (stereo not drawn)
7,172 to 173,Cc1ccc(C2CC(=O)C=C(N)C2)s1 (stereo not drawn)
8,130,CCN(CC)C(=O)CCS(=O)c1cc(-c2ccccc2)nc2ccccc12 (stereo not drawn)
9,145 to 147,COc1ccccc1[C@H](c1cccc2ccccc12)[C@@](C)(C#N)C(=O)N1CCN(c2ccccc2Cl)CC1
10,112,O=C(OCc1ccccc1)c1cc(C(=O)OCc2ccccc2)n(CCBr)n1
11,237 to 239,COc1ccc2c(c1)-c1ncc(C(=O)O)c(=O)n1CC2
12,100,CCCc1c(OCCCOc2ccccc2)ccc2c1OC(CCC(=O)OC)(CCC(=O)OC)CC2=O
13,78.1 to 79.5,COc1ccc(Cc2nc3c(N)nc4ccccc4c3n2CCCCNS(C)(=O)=O)cc1
14,226 to 228,CCCc1nc(C)c2c(Sc3ccc(NC(C)=O)cc3)nc(-c3ccccc3OCC)nn12
15,183 to 184,OCCC1c2ccccc2C(O)=NN1c1cccc(C(F)(F)F)c1 (stereo not drawn)
16,120 to 121,COc1ccc(COC(=O)n2c(SCc3ccc(C)cn3)nc3cscc32)cc1
17,132 to 134,Cc1[nH]c2ccccc2c1CCCN1CCC(O)(Cc2ccccc2)CC1
18,178 to 179,COc1ccc(S(=O)(=O)N2CCc3cccc(-c4ccc(F)cc4)c32)cc1
19,88.6,CCOC(=O)C=Cc1ccc(-c2ccccc2)cc1
20,108 to 112,O=C1NC(=O)C(C2CCc3cc(O)ccc32)S1 (stereo not drawn)
21,271 to 272,O=c1c2ccccc2nc(-c2sc(Nc3ccc(Cl)cc3)nc2-c2ccccc2)n1-c1ccc(Cl)cc1
22,134,CC1(C)NC(=O)Oc2ccc(OCc3ccccc3)cc21
23,161,Cc1ccccc1S(=O)(=O)n1c(CCCC(=O)O)cc2nc(Cl)ccc21
24,101 to 109,CC(=O)Nc1cc(Oc2c(Cl)cc(-n3ncc(=O)[nH]c3=O)cc2Cl)ccc1O
25,133 to 134,CN(C)C(=O)c1c(-c2ccccc2)ccc2ccccc12
26,144 to 145,NC(=O)N1CC(c2ccccc2)c2ccccc21 (stereo not drawn)
